Measured values from patent US20230149452A1, “STRUCTURALLY DEFINED, BETTER TOLERATED, ORALLY ADMINSTERED, PROCESSED ARSENOLITE, A PROCESS FOR ITS PREPARATION, A PHARMACEUTICAL COMPOSITION AND USES THEREOF” (priority 2020, published 2023).

Key:
[1] = patients; cited from earlier work
[2] = Bulk density, ASTM D6683-19; type: physicochemical
[3] = test system: chick embryo yolk sac membrane (YSM) blood vessels; experiment: In ovo chick embryo yolk sac membrane (YSM) angiogenesis model; type: in vivo, white Leghorn breed of fowls; conditions: all tested concentrations, 24 hr after treatment, in comparison with control

Row | Substance | dyspepsia [1] [%] | elevation in liver enzymes [1] [%] | headache [1] [%] | herpes zoster reactivation [1] [%] | menorrhagia [1] [%] | rash [1] [%] | bulk density [2] [g/mL] | number of quaternary blood vessels [3]
1 | Arsenic tri oxide [ATO] | 24 | 42 | 29 | 13 | 4 | 11 | 1.3336 | –
2 | Avastin: monoclonal antibody targeted against VEGF, approved by FDA for therapeutic intervention in cancer | – | – | – | – | – | – | – | significant decrease
